The values that follow come from patent US8829014B2, “Thiazole and thiophene analogues, and their use in treating autoimmune diseases and cancers” (Board of Supervisors of Louisiana State University and …, priority 2006, dated 2014).

For one assay, the system named is carageenan-induced edema. Put plainly: Carrageenan-induced rat paw edema test (anti-inflammatory activity). In kind it is in vivo, Sprague-Dawley rats. The settings on record: Rattus norvegicus, po, 3 h, rat paw edema, 50 mg/kg, reading 3 hours after carrageenan; [(Control−Test)/Control]×100%; read-out: % Protection P. As for the experimental part:
Sprague-Dawley rats, male and female, 150-250 g will be used in an edema test. Rats will be deprived of food but not water for 18 hours prior to the experiment. The test compounds will be administered with a blunt-tipped needle orally, 50 mg/kg, as a suspension in 0.1% sodium CMC (carboxymethylcellulose) vehicle. Alternatively, the test compounds will be injected intravenously, subcutaneously, or intraperitoneally. One hour later, 0.1 ml of a 1% carrageenan solution in saline will be injected in the sub-plantar region of the right hind paw of each rat. […] The reading will be repeated 3 hours later. The displacement readings give a measure of carageenan-induced edema. Any reduction in carageenan-induced edema with a test compound, as compared to saline control, is a measure of the anti-inflammatory activity of the test compound. The percentage protection at 50-mg/kg doses was calculated according to the following formula: % Protection=[(Control−Test)/Control]×100%.
Following treatment, the media from the VSMC and HUVEC incubations were removed, and the amount of lactate dehydrogenase (LDH) released into the medium was determined with a commercial kit and expressed as a % increase over vehicle-treated cells. HPT toxicity was determined by the ethidium homodimer (EthHD) uptake assay. […] The lead compounds were also tested in two pairs of cell lines from the skin or prostate, one tumorigenic and one non-tumorigenic, to test for differing toxicity or heightened sensitivity in the tumorigenic lines. The cells were treated for 48 h with vehicle (0.1% DMSO) or 10 μM of each drug candidate, and the viability of the cells was determined by the MTT assay, expressed as a % decrease in viability compared to vehicle-treated cells. The in vivo inflammation model measured the % inhibition of rat paw edema induced by carageenan injection.
In the case of `Cc1ccc(-n2c(-c3cc(-c4ccc(Cl)cc4)c(N4CCOCC4)s3)nc3ccccc3c2=O)cc1` [Example 291, 2-[4-(4-Chlorophenyl)-5-morpholin-4-yl-thiophen-2-yl]-3-p-tolyl-3H-quinazolin-4-one], the inhibition in vivo at 50 mg/kg amounted to 53%.

Consider `Cc1ccc(-n2c(-c3cc(-c4ccc(S(C)(=O)=O)cc4)c(N4CCOCC4)s3)nc3ccccc3c2=O)cc1` [Example 292, 2-[4-(4-Methanesulfonyl-phenyl)-5-morpholin-4-yl-thiophen-2-yl]-3-p-tolyl-3H-quinazolin-4-one], for which the inhibition in vivo at 50 mg/kg worked out at 31%.

For the compound `COc1ccccc1-n1c(-c2cc(-c3ccccc3)c(N3CCOCC3)s2)nc2ccccc2c1=O` [Example 294, 3-(2-Methoxy-phenyl)-2-(5-morpholin-4-yl-4-phenyl-thiophen-2-yl)-3H-quinazolin-4-one], the inhibition in vivo at 50 mg/kg was found to be 34%.

Turning to `O=c1c2ccccc2nc(-c2cc(-c3ccccc3)c(N3CCOCC3)s2)n1-c1ccccc1Cl` [Example 304, 3-(2-Chlorophenyl)-2-(5-morpholin-4-yl-4-phenyl-thiophen-2-yl)-3H-quinazolin-4-one], the inhibition in vivo at 50 mg/kg came out at 37%.

Consider `O=c1c2ccccc2nc(-c2cc(-c3ccc(Cl)cc3)c(N3CCOCC3)s2)n1-c1ccccc1Cl` [Example 305, 2-[4-(4-Chlorophenyl)-5-morpholin-4-yl-thiophene-2-yl]-3-(2-chlorophenyl)-3H-quinazolin-4-one], for which the inhibition in vivo at 50 mg/kg is 40%.

Take `CS(=O)(=O)c1ccc(-c2cc(-c3nc4ccccc4c(=O)n3-c3ccccc3Cl)sc2N2CCOCC2)cc1` [Example 307, 2-[4-(4-Methanesulphonyl-phenyl)-5-morpholin-4-yl-thiophen-2-yl]-3-(2-chloro-phenyl)-3H-quinazolin-4-one]: the inhibition in vivo at 50 mg/kg came out at 31%.

As to `CN1CCN(c2sc(-c3nc4ccccc4c(=O)n3-c3ccc(Cl)cc3)cc2-c2ccc(S(C)(=O)=O)cc2)CC1` [Example 318, 3-(4-Chlorophenyl)-2-[4-(4-methanesulfonyl-phenyl)-5-(4-methyl-piperazine-1-yl)-thiophen-2-yl]-3H-quinazolin-4-one], the inhibition in vivo at 50 mg/kg turned out to be 21%.

Take `Nc1nc(Nc2ccccc2)sc1C(=O)c1ccc(Cl)cc1` [Example 323, (4-Amino-2-phenylamino-thiazol-5-yl)-(4-chloro-phenyl)-methanone]: the inhibition in vivo at 50 mg/kg turned out to be 43%.

As for `Nc1nc(Nc2ccccc2)sc1C(=O)c1ccc(Cl)cc1Cl` [Example 324, (4-Amino-2-phenylamino-thiazol-5-yl)-(2,4-dichloro-phenyl)-methanone], the inhibition in vivo at 50 mg/kg was 55%.

Consider `CS(=O)(=O)c1ccc(C(=O)c2sc(Nc3ccccc3)nc2N)cc1` [Example 325, (4-Amino-2-phenylamino-thiazol-5-yl)-(4-methanesulfonyl-phenyl)-methanone], for which the inhibition in vivo at 50 mg/kg was 12%.

`CC(=O)Nc1ccc(C(=O)c2sc(Nc3ccccc3)nc2N)cc1` [Example 326, N-[4-(4-Amino-2-phenylamino-thiazole-5-carbonyl)-phenyl]-acetamide]: the inhibition in vivo at 50 mg/kg was 34%.

As for `Nc1nc(Nc2ccccc2)sc1C(=O)c1cccnc1` [Example 327, (4-Amino-2-phenylamino-thiazol-5-yl)-pyridin-3-yl-methanone], the inhibition in vivo at 50 mg/kg was found to be 32%.

On to `Nc1nc(Nc2ccccc2)sc1C(=O)c1ccncc1` [Example 328, (4-Amino-2-phenylamino-thiazol-5-yl)-pyridin-4-yl-methanone], for which the inhibition in vivo at 50 mg/kg turned out to be 76%.

For the compound `Nc1nc(Nc2ccccc2)sc1C(=O)c1ccccn1` [Example 329, (4-Amino-2-phenylamino-thiazol-5-yl)-pyridin-2-yl-methanone], the inhibition in vivo at 50 mg/kg was found to be 54%.

With `COc1c(C)cnc(-c2sc(Nc3ccccc3)nc2N)c1C` [Example 330, 5-(4-Methoxy-3,5-dimethyl-pyridin-2-yl)-N2-phenyl-thiazole-2,4-diamine], the inhibition in vivo at 50 mg/kg came out at 24%.

In the case of `Nc1nc(Nc2ccc(Cl)cc2)sc1C(=O)c1ccc(Cl)cc1Cl` [Example 335, [4-Amino-2-(4-chloro-phenylamino)-thiazol-5-yl]-(2,4-dichloro-phenyl)-methanone], the inhibition in vivo at 50 mg/kg came out at 30.3%.

Regarding `CS(=O)(=O)c1ccc(C(=O)c2sc(Nc3ccc(Cl)cc3)nc2N)cc1` [Example 336, [4-Amino-2-(4-chloro-phenylamino)-thiazol-5-yl]-(4-methanesulfonyl-phenyl)-methanone], the inhibition in vivo at 50 mg/kg came to 28.3%.

For the compound `Nc1nc(Nc2ccc(Cl)cc2)sc1C(=O)c1ccncc1` [Example 339, [4-Amino-2-(4-chloro-phenylamino)-thiazol-5-yl]-pyridin-4-yl-methanone], the inhibition in vivo at 50 mg/kg amounted to 12%.

For `Cc1c(OCC(F)(F)F)ccnc1-c1sc(Nc2ccc(Cl)cc2)nc1N` [Example 342, (N2-(4-Chloro-phenyl)-5-[3-Methyl-4-(2,2,2-trifluoro-ethoxy)-pyridin-2-yl]-thiazole-2,4-diamine)], the inhibition in vivo at 50 mg/kg was determined as 76%.

Take `COc1ccc(Nc2nc(N)c(C(=O)c3ccc(OC)cc3)s2)cc1` [Example 343, ([4-Amino-2-(4-methoxy-phenylamino)-thiazol-5-yl]-(4-methoxy-phenyl)-methanone)]: the inhibition in vivo at 50 mg/kg is 54%.

Turning to `COc1ccc(Nc2nc(N)c(C(=O)c3ccc(Cl)cc3)s2)cc1` [Example 345, ([4-Amino-2-(4-methoxy-phenylamino)-thiazol-5-yl]-(4-chloro-phenyl)-methanone)], the inhibition in vivo at 50 mg/kg turned out to be 34.6%.

Turning to `COc1ccc(Nc2nc(N)c(C(=O)c3ccc(S(C)(=O)=O)cc3)s2)cc1` [Example 347, ([4-Amino-2-(4-methoxy-phenylamino)-thiazol-5-yl]-(4-methanesulfonyl-phenyl)-methanone)], the inhibition in vivo at 50 mg/kg was 30.3%.

Consider `COc1ccc(Nc2nc(N)c(C(=O)c3ccc(NC(C)=O)cc3)s2)cc1` [Example 348, (N-{4-[4-Amino-2-(4-methoxy-phenylamino)-thiazole-5-carbonyl]-phenyl}-acetamide)], for which the inhibition in vivo at 50 mg/kg worked out at 28.3%.

Consider `COc1ccc(Nc2nc(N)c(C(=O)c3ccncc3)s2)cc1` [Example 350, ([4-Amino-2-(4-methoxy-phenylamino)-thiazol-5-yl]-pyridin-4-yl-methanone)], for which the inhibition in vivo at 50 mg/kg was found to be 25.8%.

As for `COc1ccc(Nc2nc(N)c(-c3ncc(C)c(OC)c3C)s2)cc1` [Example 352, (5-(4-Methoxy-3,5-dimethyl-pyridin-2-yl)-N2-(4-methoxy-phenyl)-thiazole-2,4-diamine)], the inhibition in vivo at 50 mg/kg was determined as 23%.

Consider `COc1ccc(C(=O)c2sc(Nc3ccc(Cl)cc3)nc2NC(=O)Nc2ccc(F)cc2)cc1` [Example 355, 1-[2-(4-Chloro-phenylamino)-5-(4-methoxy-benzoyl)-thiazol-4-yl]-3-(4-fluoro-phenyl)-urea], for which the inhibition in vivo at 50 mg/kg was 62.6%.

On to `O=C(Nc1ccc(F)cc1)Nc1nc(Nc2ccc(Cl)cc2)sc1C(=O)c1ccc(Cl)cc1` [Example 357, 1-[5-(4-Chloro-benzoyl)-2-(4-chloro-phenylamino)-thiazol-4-yl]-3-(4-fluoro-phenyl)-urea], for which the inhibition in vivo at 50 mg/kg was 24.3%.

On to `O=C(Nc1ccc(F)cc1)Nc1nc(Nc2ccc(Cl)cc2)sc1C(=O)c1ccc(Cl)cc1Cl` [Example 358, 1-[2-(4-Chloro-phenylamino)-5-(2,4-dichloro-benzoyl)-thiazol-4-yl]-3-(4-fluoro-phenyl)-urea], for which the inhibition in vivo at 50 mg/kg was determined as 72.5%.

On to `O=C(Nc1ccc(F)cc1)Nc1nc(Nc2ccc(Cl)cc2)sc1C(=O)c1cccnc1` [Example 359, 1-[2-(4-Chloro-phenylamino)-5-(pyridine-3-carbonyl)-thiazol-4-yl]-3-(4-fluoro-phenyl)-urea], for which the inhibition in vivo at 50 mg/kg was 64.2%.

On to `O=C(Nc1ccc(F)cc1)Nc1nc(Nc2ccc(Cl)cc2)sc1C(=O)c1ccncc1` [Example 360, 1-[2-(4-Chloro-phenylamino)-5-(pyridine-4-carbonyl)-thiazol-4-yl]-3-(4-fluoro-phenyl)-urea], for which the inhibition in vivo at 50 mg/kg was determined as 69.8%.

The same assay, now with this note: rat paw edema, 50 mg/kg, reading 3 hours after carrageenan; [(Control−Test)/Control]×100%.
Turning to `Cc1ccc(C(=O)c2sc(Nc3ccccc3)nc2N)cc1` [Example 322, 4-Amino-(2-phenylamino-thiazol-5-yl)-p-tolyl-methanone], the “% Protection P” value was found to be 23.98%.

Turning to `COc1c(C)cnc(-c2sc(Nc3ccc(Cl)cc3)nc2N)c1C` [Example 341], the “% Protection P” value is given as 32%.

The same assay, now with this note: rat paw edema, 50 mg/kg, reading 3 hours after carrageenan; [(Control−Test)/Control]×100%; 50 mg/kg.
Turning to `COc1ccc(C(=O)c2sc(Nc3ccccc3)nc2N)cc1` [Example 321, 4-Amino-(2-phenylamino-thiazol-5-yl)-(4-methoxy-phenyl)-methanone], the “% Protection P” value is 12.25%.

`COc1ccc(C(=O)c2sc(Nc3ccccc3)nc2NC(=O)Nc2ccc(F)cc2)cc1` [Example 354, 1-(4-Fluoro-phenyl)-3-[5-(4-methoxy-benzoyl)-2-phenylamino-thiazol-4-yl]-urea]: the “% Protection P” value was 26.27%.
